Consider five compounds from patent US20220211731A1, “COMPOSITION FOR PROMOTING GLP-1 SECRETION” (SUNTORY HOLDINGS LIMITED, priority 2019, published 2022).

One series deals with H716. Briefly: GLP-1 secretion amount of sweeteners, Experimental Example 1. The series is classed as cell-based, human. The note with it: H716, stock solution added, quantitation after further 24 hours, PBS as negative control, FIG. 1. The protocol:
RebA, RebB, RebM, RebN, RebD, RebC, MogV, and stevioside were examined for their GLP-1 secretion-promoting effects. Specifically, the amount of GLP-1 secretion was measured by the following procedures.
Each test substance B, C, D, E, F, G, I, or J vas dissolved in PBS (Thermo Fisher Scientific Inc.) (Cat. No. 14190250) to obtain a stock solution. The concentration of the stock solution is shown below:
B (RebA); 5 mM, C (RebB); 1M, D (RebM); 2.5 mM, E (RebN); 1M, F (RebD); 2.5 mM, G (RebC); 2.5 mM, I (MogV); 1M, J(stevioside);1M
H716 (ATCC) (Cat. No. ATCC® CCL-251) was cultured in RPMI 1640 (10% FBS ((Thermo Fisher Scientific Inc.) (Cat. No. 10439024), 1 mM Sodium Pyruvate) in an incubator at 37° C., 5% CO2.
The preculture was performed for 2 weeks, and the cells were sufficiently recovered, and then cell stocks were prepared.
Cells were seeded in 96-well plates at 2×10^5 cells/90 μL (high) per well (N=4). At this time, the content of FBS in the medium was lowered to 0.5% to suppress cell proliferation.
After 24 hours, the sample at the highest concentration (i.e., stock solution) was added by 10 each.
After further 24 hours, quantitation of GLP-1 was performed. Specific procedures were followed the user guide of Human GLP-1 (7-36 amide) immunoassay kit (Cat. No. AL359) (Lot number 2361115) provided by PerkinElmer, Inc. PBS was used as a negative control (no sample).

Series [1] can be described thus: Measurement of surface tension by plate method. The series is classed as physicochemical. The following applies: compared with other glycosides. The protocol: Surface tension Q is measured by a plate method. For example, a glycoside sweetener, which is a test substance, is added in an amount to have Brix 10 on a sucrose basis to prepare an aqueous solution. The surface tension of the prepared aqueous solution is measured by a plate method using an automatic surface tension meter (CBVP-Z type, manufactured by Kyowa Interface Science Co., Ltd).
Aqueous solutions containing RebA, RebD, and RebM (commercially available products) each were prepared. The contents of RebA, RebD, and RebM were aligned to Brix 10 on a sucrose basis. That is, the contents of RebA, RebD, and RebM were 333 ppm, 351 ppm, and 351 ppm, respectively. The surface tension of the obtained aqueous solution was measured by a plate method using an automatic surface tension meter (CBVP-Z type, manufactured by Kyowa Interface Science Co., Ltd). Water was used as a control and tested in the same manner.

Series [2] can be described thus: Distribution ratio between pure water and toluene. The note with it: organic layer and aqueous layer could not be separated. Format: physicochemical. The procedure:
After each about 100 mL of pure water and toluene was charged into a separatory funnel, 30 mg of each steviol glycoside was added. The separatory funnel was sealed to avoid liquid leakage, and stirred with shaking using a shaker for about 30 minutes, and then allowed to stand. When the liquid layer was separated into two layers, the distribution ratio was measured by LCMS after sampling was performed from each layer.

Series [3] in a line: Dissolution of sample in 1% DMSO-containing PBS. The series is classed as physicochemical. The following applies: final concentration of 1.5 mM (#24). The protocol:
To 20 mg of RebC, 21 μL of DMSO (manufactured by FUJIFILM Wako Pure Chemical Corporation, model number: 037-24053) was added. The mixture was then stirred by vortex and allowed to stand for several hours to obtain a stock solution having a RebC concentration of 1,000 mM. The obtained stock solution and PBS were used to prepare a 10 mM solution.
The 10 mM solution was diluted as needed with 1% DMSO-containing PBS to obtain Sample G-1 mM to Sample G-10 mM. The concentrations of RebC are described in Table 1.
For Sample B processed, final concentrations of 0.025 mM (#11) and 0.05 mM (#12) were added to the concentrations to be tested (0.1 to 2.5 mM).

In the case of `C[C@H](CC[C@@H](O[C@@H]1O[C@H](CO[C@@H]2O[C@H](CO)[C@@H](O)[C@H](O)[C@H]2O)[C@@H](O)[C@H](O)[C@H]1O[C@@H]1O[C@H](CO)[C@@H](O)[C@H](O)[C@H]1O)C(C)(C)O)[C@H]1CC[C@@]2(C)[C@@H]3CC=C4[C@@H](CC[C@H](O[C@@H]5O[C@H](CO[C@@H]6O[C@H](CO)[C@@H](O)[C@H](O)[C@H]6O)[C@@H](O)[C@H](O)[C@H]5O)C4(C)C)[C@]3(C)[C@H](O)C[C@]12C` [MogV, mogroside V], the “amount of GLP-1 secretion compared with no sample” value (“amount … compared with no sample” for short) in the series with H716 is “significantly larger amounts of GLP-1 secretion than no sample”.
As to `C=C1C[C@@]23CC[C@H]4[C@@](C)(CCC[C@@]4(C)C(=O)O[C@@H]4O[C@H](CO)[C@@H](O)[C@H](O)[C@H]4O)[C@@H]2CC[C@]1(O[C@@H]1O[C@H](CO)[C@@H](O)[C@H](O[C@@H]2O[C@H](CO)[C@@H](O)[C@H](O)[C@H]2O)[C@H]1O[C@@H]1O[C@H](CO)[C@@H](O)[C@H](O)[C@H]1O)C3` [RebA, Rebaudioside A], the “surfactant effect (surface tension)” value in series [1] is given as “higher than that of other glycosides”. Moreover, the “amount … compared with no sample” value in the series on H716 was “significantly larger amounts of GLP-1 secretion than no sample”. In addition, in series [2], the “emulsification phenomenon when measuring the distribution ratio” value is “had an emulsification phenomenon”.
As to `C=C1C[C@@]23CC[C@H]4[C@@](C)(CCC[C@@]4(C)C(=O)O[C@@H]4O[C@H](CO)[C@@H](O)[C@H](O)[C@H]4O)[C@@H]2CC[C@]1(O[C@@H]1O[C@H](CO)[C@@H](O)[C@H](O)[C@H]1O[C@@H]1O[C@H](CO)[C@@H](O)[C@H](O)[C@H]1O)C3` [stevioside, Stevioside], the “amount … compared with no sample” value with H716 is on record as “significantly larger amounts of GLP-1 secretion than no sample”.
Same read-out and setting: the entry for rebaudioside B [RebB] is “significantly larger amounts of GLP-1 secretion than no sample”.
Consider rebaudioside C [RebC], for which the “amount … compared with no sample” value in the series on H716 is “significantly larger amounts of GLP-1 secretion than no sample”. Moreover, the dissolution of sample result in series [3] is given as “not able to be dissolved”.
